Reference: ChEMBL document CHEMBL1932930, “Synthesis and biological assessment of novel 2-thiazolylhydrazones and computational analysis of their recognition by monoamine oxidase B” (Eur J Med Chem, 2012)

Tests used:
[1] = target: T1, Amine oxidase [flavin-containing] A (Homo sapiens, UniProt P21397); experiment: Inhibition of human recombinant MAO-A expressed in baculovirus infected BTI-TN-5B1-4 insect cells assessed as inhibition of hydrogen peroxide production from […] after 15 mins by fluorimetric method; details: bti-tn-5b1-4, 0.25 h
T1 sequence (P21397 whole entry): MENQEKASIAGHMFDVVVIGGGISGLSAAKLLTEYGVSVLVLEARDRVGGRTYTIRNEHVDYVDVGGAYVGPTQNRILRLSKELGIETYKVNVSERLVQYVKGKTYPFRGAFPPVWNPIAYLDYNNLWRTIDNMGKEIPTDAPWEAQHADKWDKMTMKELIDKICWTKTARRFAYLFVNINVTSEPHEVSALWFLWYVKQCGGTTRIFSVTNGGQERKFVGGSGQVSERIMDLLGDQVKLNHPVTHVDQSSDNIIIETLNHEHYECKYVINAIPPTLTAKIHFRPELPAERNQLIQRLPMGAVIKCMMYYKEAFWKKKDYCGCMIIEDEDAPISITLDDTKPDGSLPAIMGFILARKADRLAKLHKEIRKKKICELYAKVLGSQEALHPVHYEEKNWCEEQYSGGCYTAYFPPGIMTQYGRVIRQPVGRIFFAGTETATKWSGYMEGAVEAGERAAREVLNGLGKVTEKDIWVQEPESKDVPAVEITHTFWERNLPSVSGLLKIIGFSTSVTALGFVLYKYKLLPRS

[2] = target: T1, Amine oxidase [flavin-containing] A; experiment: Inhibition of human recombinant MAO-A expressed in baculovirus infected BTI-TN-5B1-4 insect cells assessed as inhibition of hydrogen peroxide production from […] at 100 uM after 15 mins by fluorimetric method; details: for inhibition at 100 µM: BTI-TN-5B1-4, human, 0.25 h; for inhibition (INH): human, bti-tn-5b1-4, 0.25 h, 100 µM
[3] = target: T2, Amine oxidase [flavin-containing] B (Homo sapiens, UniProt P27338); experiment: Inhibition of human recombinant MAO-B expressed in baculovirus infected BTI-TN-5B1-4 insect cells assessed as inhibition of hydrogen peroxide production from […] at 100 uM after 15 mins by fluorimetric method; details: BTI-TN-5B1-4, human, 0.25 h
T2 sequence (P27338 whole entry): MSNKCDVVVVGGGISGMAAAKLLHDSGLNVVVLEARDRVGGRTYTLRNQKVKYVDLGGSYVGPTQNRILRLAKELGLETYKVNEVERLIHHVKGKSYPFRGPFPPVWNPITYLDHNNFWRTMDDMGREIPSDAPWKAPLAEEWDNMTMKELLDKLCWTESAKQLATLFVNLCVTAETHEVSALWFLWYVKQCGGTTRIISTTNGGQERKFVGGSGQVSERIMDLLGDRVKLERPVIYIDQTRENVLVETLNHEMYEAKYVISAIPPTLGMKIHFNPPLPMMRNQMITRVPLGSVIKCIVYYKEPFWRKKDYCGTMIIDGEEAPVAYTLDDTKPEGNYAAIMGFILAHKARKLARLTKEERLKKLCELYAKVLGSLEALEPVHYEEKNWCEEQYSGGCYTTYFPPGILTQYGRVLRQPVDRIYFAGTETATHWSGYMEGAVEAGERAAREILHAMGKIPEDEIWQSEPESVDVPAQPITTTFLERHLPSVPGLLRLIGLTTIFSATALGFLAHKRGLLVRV

[4] = target: T2, Amine oxidase [flavin-containing] B; experiment: biochemical
Description: Inhibition of human recombinant MAO-B expressed in baculovirus infected BTI-TN-5B1-4 insect cells assessed as inhibition of hydrogen peroxide production from p-tryptamine after 15 mins by fluorimetric method

[5] = target: T2, Amine oxidase [flavin-containing] B; experiment: Inhibition of human recombinant MAO-B expressed in baculovirus infected BTI-TN-5B1-4 insect cells assessed as inhibition of hydrogen peroxide production from […] at 1 mM after 15 mins by fluorimetric method; details: bti-tn-5b1-4, 0.25 h, 1000 µM

SMILES | inhibition (INH) [1] | inhibition at 100 µM [2] [%] | inhibition at 100 µM [3] [%] | IC50 [4] [µM] | inhibition (INH) [2] | inhibition (INH) [5]
Clc1ccc(/C=N/Nc2nc(-c3ccc(Cl)cc3)cs2)cc1 | Dose-dependent effect | 40 | 40 |  |  | 
Cc1ccccc1/C=N/Nc1nc(-c2ccc(Cl)cc2)cs1 | Dose-dependent effect | 40 | 40 |  |  | 
C#CCN(C)CCCOc1ccc(Cl)cc1Cl [CLORGILINE] | Dose-dependent effect |  |  |  |  | 
Clc1ccc(-c2csc(N/N=C/c3ccccc3)n2)cc1 | Dose-dependent effect | 40 | 40 |  |  | 
O=C(NCCN1CCOCC1)c1ccc(Cl)cc1 [MOCLOBEMIDE] | Dose-dependent effect |  |  |  |  | Not Active
Cc1ccc(/C=N/Nc2nc(-c3ccc(F)cc3)cs2)cc1 | Dose-dependent effect |  |  | 44.7 | Not Active | 
Fc1ccc(-c2csc(N/N=C/c3ccccc3)n2)cc1 | Dose-dependent effect | 40 |  | 0.79 |  | 
Cc1ccccc1/C=N/Nc1nc(-c2ccc(F)cc2)cs1 | Dose-dependent effect | 40 |  | 0.19 |  | 
COc1ccc(/C=N/Nc2nc(-c3ccc(F)cc3)cs2)cc1 | Dose-dependent effect | 40 |  | 9.24 |  | 

More lines, main results first:

inhibition (INH) [1] | inhibition at 100 µM [2] [%] | inhibition at 100 µM [3] [%] | IC50 [4] [µM] | inhibition (INH) [2] | SMILES | inhibition (INH) [5]
Dose-dependent effect | 40 | 40 |  |  | COc1ccc(/C=N/Nc2nc(-c3ccc(Cl)cc3)cs2)cc1 | 
Dose-dependent effect | 40 |  | 2.39 |  | COc1ccc(/C=N/Nc2nc(-c3ccc(F)cc3)cs2)cc1OC | 
Dose-dependent effect |  | 40 |  | Not Active | Cc1ccc(/C=N/Nc2nc(-c3ccc(Cl)cc3)cs2)cc1 | 
Dose-dependent effect | 40 | 40 |  |  | COc1ccc(/C=N/Nc2nc(-c3ccc(Cl)cc3)cs2)cc1OC | 
Dose-dependent effect | 40 |  | 1.32 |  | Fc1ccc(-c2csc(N/N=C/c3ccc(Cl)cc3)n2)cc1 | 
